Measurements from PMC9494746 (Biochemistry, 2022).
Like-named read-outs stand apart in the source and are kept apart here.

How the values were obtained:
SET/WRAD2 complex [1] = target: T1, SET/WRAD2 complex (Homo sapiens, UniProt O14686); assay: Product and dead-end inhibitor studies, MTase-Glo; type: biochemical; design: key to inhibition pattern: C = competitive; NC = noncompetitive; UC = uncompetitive
T1 construct: expressing amino acids 5308-5537 of the hKMT2D catalytic SET domain; 6xHis + TEV site (N, cleaved yes); made in house; host or cells: KMT2D Win-SET: Sf21 (baculovirus); H3 peptides bought from Chinese Peptide Company
Description: (§1) SET domain activity was monitored with a quantitative endpoint assay determining AdoHcy production using MTase-Glo by Promega.[39] Assays were performed as time courses at room temperature with buffer constituents, 50 mM Tris, pH 7.5, 50 mM NaCl, 1 mM DTT, 1% DMSO, and 0.005% w/v Triton X-100 in deionized water. […] Addition of 1 μL of 0.5% v/v TFA was used to stop the methylation reaction at defined time points; 1 μL of 6× concentrated MTase-Glo reagent was added to each well and incubated at room temperature. After 30 min, 6 μL of the prefiltered MTase-Glo detection reagent was added and incubated for a further 30 min at room temperature. Luminescence was measured using an Envision 2101 Multilabel plate reader, and product concentrations were calculated using an AdoHcy standard curve. Steady-state rates were obtained by plotting AdoHcy production over time and normalized to SET domain concentration. Experiments were performed in triplicate and expressed as the mean ± SD. Data were analyzed using nonlinear regression in GraphPad Prism v9.1.
Steady-state rates were measured in substrate-inhibitor matrix experiments. Dead-end inhibitor experiments were performed with the second substrate fixed at KM, while product inhibitor experiments fixed the second substrate at KM or 20× KM. Assays using 20× KM AdoMet used a cofactor adjusted to pH 7.5. […] Steady-state rates were globally fitted to competitive, uncompetitive, and noncompetitive inhibition (eqs 6, 7, and 8, respectively).
Competitive inhibition [drawing 6] 6 Uncompetitive inhibition [drawing 7] 7 Noncompetitive inhibition [drawing 8] 8 Mixed inhibition [drawing 9] 9 where ν is the initial rate, Vmax is the maximum velocity of the uninhibited reaction, [S] is the substrate concentration of the varied substrate, [I] is the inhibitor concentration, KM is the Michaelis–Menten constant, and Ki is the inhibition constant. To resolve any ambiguities in assigning inhibition type, the mixed inhibition model was used (eq 9), to derive the value of α, which is a measure of competitive or uncompetitive nature.

hKMT2D SET domain = target: T2, hKMT2D SET domain (Homo sapiens, UniProt O14686); assay: WRAD2 titration: MTase-Glo steady-state substrate matrix experiments; type: biochemical; settings: eq 1, read-out: Kd^(AdoMet)
T2 construct: expressing amino acids 5308-5537 of the hKMT2D catalytic SET domain; 6xHis + TEV site (N, cleaved yes); made in house; host or cells: KMT2D Win-SET: Sf21 (baculovirus); H3 peptides bought from Chinese Peptide Company
Description: as §1
(§2) Steady-state rates were measured in substrate matrix experiments. Data were globally fitted to ternary Bi–Bi and Ping–Pong models to obtain kcat and KM parameters (eqs 1 and 2).
The ternary Bi–Bi model [drawing 1] 1 The Ping–Pong model [drawing 2] 2 where ν is the initial rate, Vmax is the maximum velocity, [A] is the concentration of the varied substrate, [B] the concentration of the fixed substrate, KM^A and KM^B are the Michaelis constants of the varied and fixed substrates, respectively, and Kd is the dissociation constant of the varied substrate. […]

SET/WRAD2 complex [2] = target: T1, SET/WRAD2 complex; assay: Steady-state substrate specificity (peptide and nucleosome substrates), MTase-Glo; type: biochemical
Description: as §1, §2
Target sequence in this assay (Q15291 whole entry, the tested form may be a part): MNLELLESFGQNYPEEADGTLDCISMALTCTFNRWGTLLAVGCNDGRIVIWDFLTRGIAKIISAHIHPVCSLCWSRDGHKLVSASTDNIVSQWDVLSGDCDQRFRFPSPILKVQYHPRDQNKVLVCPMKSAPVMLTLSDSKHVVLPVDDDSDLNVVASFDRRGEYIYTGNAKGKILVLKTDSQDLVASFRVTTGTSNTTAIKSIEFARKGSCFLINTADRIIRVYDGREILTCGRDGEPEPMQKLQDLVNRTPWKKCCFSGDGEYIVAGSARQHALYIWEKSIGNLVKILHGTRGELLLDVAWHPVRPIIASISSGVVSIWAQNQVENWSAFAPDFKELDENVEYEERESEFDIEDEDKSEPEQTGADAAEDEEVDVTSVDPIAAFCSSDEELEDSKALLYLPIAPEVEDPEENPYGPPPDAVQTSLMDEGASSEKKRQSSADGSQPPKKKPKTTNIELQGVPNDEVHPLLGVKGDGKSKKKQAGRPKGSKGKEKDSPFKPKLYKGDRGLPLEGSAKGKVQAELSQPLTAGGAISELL
Target sequence in this assay (Q9UBL3 95-628, further chain): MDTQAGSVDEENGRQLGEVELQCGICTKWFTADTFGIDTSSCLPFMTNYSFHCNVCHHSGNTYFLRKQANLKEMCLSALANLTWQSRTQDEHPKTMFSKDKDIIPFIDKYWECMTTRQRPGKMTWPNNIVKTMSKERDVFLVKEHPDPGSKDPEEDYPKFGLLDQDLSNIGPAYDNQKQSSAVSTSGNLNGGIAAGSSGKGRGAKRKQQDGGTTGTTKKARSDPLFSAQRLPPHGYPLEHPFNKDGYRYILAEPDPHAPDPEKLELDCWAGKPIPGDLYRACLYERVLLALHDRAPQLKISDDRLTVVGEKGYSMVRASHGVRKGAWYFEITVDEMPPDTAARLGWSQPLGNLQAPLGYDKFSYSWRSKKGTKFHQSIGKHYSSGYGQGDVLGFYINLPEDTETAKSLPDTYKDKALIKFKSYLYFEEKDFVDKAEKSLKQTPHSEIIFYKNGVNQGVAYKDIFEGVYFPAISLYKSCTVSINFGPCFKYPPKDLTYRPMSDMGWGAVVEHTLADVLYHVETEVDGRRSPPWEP
Target sequence in this assay (Q9C005 whole entry, further chain, the tested form may be a part): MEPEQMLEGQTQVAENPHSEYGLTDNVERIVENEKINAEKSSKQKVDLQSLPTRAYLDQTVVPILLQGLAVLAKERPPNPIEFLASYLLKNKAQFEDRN
Target sequence in this assay (O14686 5361-5537): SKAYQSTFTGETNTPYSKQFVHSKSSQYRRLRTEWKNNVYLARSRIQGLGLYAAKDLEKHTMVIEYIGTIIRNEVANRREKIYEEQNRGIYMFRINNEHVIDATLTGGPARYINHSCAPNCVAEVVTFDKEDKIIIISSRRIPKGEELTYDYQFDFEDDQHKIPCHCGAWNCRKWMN
The ternary Bi–Bi model [drawing 1] 1 The Ping–Pong model [drawing 2] 2 where ν is the initial rate, Vmax is the maximum velocity, [A] is the concentration of the varied substrate, [B] the concentration of the fixed substrate, KM^A and KM^B are the Michaelis constants of the varied and fixed substrates, respectively, and Kd is the dissociation constant of the varied substrate.

[3] = target: T3, SET/Ash2L/RbBP5 minimal complex (Homo sapiens, UniProt O14686); assay: Substrate matrix experiment with the minimal complex, MTase-Glo; type: biochemical; settings: read-out: Kd^(AdoMet)
T3 construct: 6xHis + TEV site (N); made in house; RbBP5 peptide synthetic, Chinese Peptide Company
Description: as §1
The ternary Bi–Bi model [drawing 1] 1 The Ping–Pong model [drawing 2] […]

[4] = target: T4, His-SET (5382–5537) + ASH2L (380-496-ISGRGS-539-598) + RbBP5 peptide (Homo sapiens, UniProt O14686); assay: SPR binding assays (steady-state affinity); settings: minimal complex; 1:1 interaction model
T4 construct: made in house; RbBP5 peptide synthetic, Chinese Peptide Company
Description: Surface plasmon resonance experiments were performed using a T200 instrument (Cytiva) equipped with a research-grade NTA sensor S chip (Cytiva) at 20 °C. For immobilization, the instrument was primed with a buffer composed of 10 mM HEPES, pH 7.5, 150 mM NaCl, 0.5 mM TCEP, and 0.05% Tween 20. The NTA chip was conditioned with three 2 min injections of 50 mM NaOH/1 M NaCl and a 2 min injection of 250 mM EDTA. Protein and reference flow cells were then prepared by a 2 min injection of 1 mM NiCl2 and a 7 min injection of 0.2 M EDC/ 0.05 M NHS. Immediately, the protein (500 nM His-SET (5382–5537) + ASH2L (380-496-ISGRGS-539-598) + RbBP5 peptide in immobilization buffer) was injected over the measurement flow cell to the desired RU level, followed by deactivation with a 7 min injection of 1 M ethanolamine pH 8 of all flow cells. For binding measurements, the system was then primed in a running buffer consisting of 50 mM Tris pH 7.5, 150 mM NaCl, 1 mM TCEP, 1–2% DMSO, and 0.05% Tween 20. […] Data processing included solvent correction and blank subtraction. The steady-state data were analyzed using Biaevaluation/Insight Software 1.1 (GE Healthcare/Cytiva) using an implemented 1:1 interaction model.

[5] = target: hKMT2D SET domain (Win-SET protein that lost the Win motif by proteolysis) (human) (UniProt O14686)
[6] = target: hKMT2D SET domain (Win-SET protein that lost the Win motif by proteolysis) (human) (UniProt O14686); remark: listed apart in the source
[7] = tested on: C[S+](CC[C@H](N)C(=O)[O-])C[C@H]1O[C@@H](n2cnc3c(N)ncnc32)[C@H](O)[C@@H]1O; assay: Steady-state substrate specificity (peptide and nucleosome substrates), MTase-Glo; type: biochemical, human; settings: other: WRAD2, eq 1, pH 7.5
[8] = tested on: C[S+](CC[C@H](N)C(=O)[O-])C[C@H]1O[C@@H](n2cnc3c(N)ncnc32)[C@H](O)[C@@H]1O; assay: purified protein, by the assay type; type: biochemical, human; settings: pH 7.5
[9] = varied substrate AdoMet, fixed substrate at 20× KM
[10] = varied substrate AdoMet, fixed substrate at KM
[11] = varied substrate H3_1–21, fixed substrate at KM

hKMT2D SET domain (Win-SET protein that lost the Win motif by proteolysis) (human), sequence (O14686 5362-5537): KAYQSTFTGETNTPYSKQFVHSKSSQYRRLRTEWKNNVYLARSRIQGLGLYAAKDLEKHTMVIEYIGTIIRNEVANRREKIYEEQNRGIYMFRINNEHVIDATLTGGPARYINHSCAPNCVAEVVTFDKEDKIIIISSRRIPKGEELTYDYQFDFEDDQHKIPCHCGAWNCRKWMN
T2 sequence (Q9UBL3 95-628): as the sequence (Q9UBL3 95-628, further chain) above
T2 sequence (Q9C005 whole entry, further chain, the tested form may be a part): as the sequence (Q9C005 whole entry, further chain, the tested form may be a part) above
T2 sequence (O14686 5361-5537): as the sequence (O14686 5361-5537) above
T2 sequence (Q15291 whole entry, further chain, the tested form may be a part): as the sequence (Q15291 whole entry, the tested form may be a part) above
Ash2L (absent small or homoeotic 2-like), full length, sequence (Q9UBL3 whole entry): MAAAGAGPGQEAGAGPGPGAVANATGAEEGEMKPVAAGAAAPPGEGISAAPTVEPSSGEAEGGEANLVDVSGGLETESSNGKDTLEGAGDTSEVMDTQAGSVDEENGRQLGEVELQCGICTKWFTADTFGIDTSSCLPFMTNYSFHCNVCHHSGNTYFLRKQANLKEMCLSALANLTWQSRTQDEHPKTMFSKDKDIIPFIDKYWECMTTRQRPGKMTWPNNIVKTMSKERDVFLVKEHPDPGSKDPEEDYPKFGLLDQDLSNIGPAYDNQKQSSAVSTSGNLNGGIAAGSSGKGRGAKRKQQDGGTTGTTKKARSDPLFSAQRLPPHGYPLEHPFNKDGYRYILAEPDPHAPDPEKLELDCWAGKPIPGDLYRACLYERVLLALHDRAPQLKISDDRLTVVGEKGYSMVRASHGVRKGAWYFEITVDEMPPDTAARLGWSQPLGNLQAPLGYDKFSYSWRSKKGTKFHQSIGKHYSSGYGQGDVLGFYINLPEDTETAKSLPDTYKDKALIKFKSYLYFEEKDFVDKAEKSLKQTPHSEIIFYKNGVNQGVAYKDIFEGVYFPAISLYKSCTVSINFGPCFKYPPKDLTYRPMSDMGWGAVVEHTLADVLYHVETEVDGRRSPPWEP
RbBP5 (retinoblastoma-binding protein), full length, sequence (Q15291 whole entry): as the sequence (Q15291 whole entry, the tested form may be a part) above
T3 sequence (O14686 5382-5537, one chain of several): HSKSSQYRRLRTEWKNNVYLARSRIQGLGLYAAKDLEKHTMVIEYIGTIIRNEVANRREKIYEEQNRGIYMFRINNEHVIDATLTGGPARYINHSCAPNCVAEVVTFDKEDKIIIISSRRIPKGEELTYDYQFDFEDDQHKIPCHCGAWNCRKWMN
T4 sequence (O14686 5382-5537): as the sequence (O14686 5382-5537, one chain of several) above

In the case of `Nc1ncnc2c1ncn2[C@@H]1O[C@H](CSCC[C@H](N)C(=O)O)[C@@H](O)[C@H]1O` [AdoHcy, S-adenosyl-L-homocysteine], the Ki (SET/WRAD2 complex [1]; [9]) is reported as 2290 ± 200 nM, the inhibition pattern (SET/WRAD2 complex [1]; [9]) is reported as “C” and the “α (mixed inhibition model)” value (SET/WRAD2 complex [1]; [9]) is reported as 6.8. For the same molecule, the Ki (SET/WRAD2 complex [1]; [10]) was 4950 ± 620 nM, the inhibition pattern (SET/WRAD2 complex [1]; [10]) was “C” and the “α (mixed inhibition model)” value (SET/WRAD2 complex [1]; [10]) was greater than 1000. For the same molecule, the inhibition pattern (SET/WRAD2 complex [1]; varied substrate H3_1–21, fixed substrate at 20× KM) was “no inhibition”, the Ki (SET/WRAD2 complex [1]; [11]) was 5380 ± 410 nM and the inhibition pattern (SET/WRAD2 complex [1]; [11]) was “NC”. The “α (mixed inhibition model)” value (SET/WRAD2 complex [1]; [11]) was 0.56.
Work on `C[S+](CC[C@H](N)C(=O)[O-])C[C@H]1O[C@@H](n2cnc3c(N)ncnc32)[C@H](O)[C@@H]1O` (stereo partly drawn) [AdoMet, S-adenosyl-L-methionine] yielded a Kd (hKMT2D SET domain; [WRAD2] 0 nM, [SET] 125 nM) of 5930 ± 1200 nM, a Kd (hKMT2D SET domain; [WRAD2] 0.125 nM, [SET] 125 nM) of 4990 ± 1500 nM and a Kd (hKMT2D SET domain; [WRAD2] 0.5 nM, [SET] 125 nM) of 2930 ± 600 nM. It also gave a Kd (hKMT2D SET domain; [WRAD2] 1 nM, [SET] 125 nM) of 1610 ± 580 nM, a Kd (hKMT2D SET domain; [WRAD2] 2 nM, [SET] 125 nM) of 610 ± 360 nM and a Kd (hKMT2D SET domain; [WRAD2] 4 nM, [SET] 125 nM) of 650 ± 380 nM. For the same molecule, the Kd (hKMT2D SET domain; [WRAD2] 6.25 nM, [SET] 30 nM) was 1540 ± 360 nM, the Kd (hKMT2D SET domain; [WRAD2] 10 nM, [SET] 30 nM) was 1420 ± 560 nM and the Kd (hKMT2D SET domain; [WRAD2] 15 nM, [SET] 30 nM) was 990 ± 300 nM. It also gave a Kd (hKMT2D SET domain; [WRAD2] 25 nM, [SET] 30 nM, substrate H3_1–21) of 850 ± 480 nM, a Kd (hKMT2D SET domain; [WRAD2] 125 nM, [SET] 30 nM) of 540 ± 310 nM and a Kd (hKMT2D SET domain; [WRAD2] […], [SET] 125 nM) of 5020 ± 680 nM. The Kd (SET/WRAD2 complex [2]; eq 1, substrate Me1H3_1–21, read-out: Kd^(AdoMet)) was 3760 ± 490 nM, the Kd (SET/WRAD2 complex [2]; eq 1, substrate Me2H3_1–21, read-out: Kd^(AdoMet)) was 40 nM and the Kd [3] was 7630 ± 460 nM. It also gave a Kd [4] of 9000 ± 2000 nM.
For `Nc1ncnc2c1ncn2[C@@H]1O[C@H](C[C@@H](N)CC[C@H](N)C(=O)O)[C@@H](O)[C@H]1O` [sinefungin], the Ki (SET/WRAD2 complex [1]; [10]) was 11000 ± 460 nM, the inhibition pattern (SET/WRAD2 complex [1]; [10]) was “C” and the “α (mixed inhibition model)” value (SET/WRAD2 complex [1]; [10]) was 21.1. The Ki (SET/WRAD2 complex [1]; [11]) was 10300 ± 790 nM, the inhibition pattern (SET/WRAD2 complex [1]; [11]) was “UC” and the “α (mixed inhibition model)” value (SET/WRAD2 complex [1]; [11]) was 0.16.
“Ash2L (absent small or homoeotic 2-like), full length (from UniProt Q9UBL3 1-628) (natural protein)” showed an H3 1-21 affinity (KM) of the SET domain with Ash2L alone, 1:1, 5 μM AdoMet [5] of 2 fold and a Kd assigned to Ash2L from the WRAD2 titration of H3 1-21 affinity (steady-state kinetics) [6] of 4 nM.
“RbBP5 (retinoblastoma-binding protein), full length (from UniProt Q15291 1-538) (natural protein)” showed a Kd assigned to RbBP5 from the WRAD2 titration of kcat (steady-state kinetics) [6] of 12 nM.
Work on SET/WRAD2 complex (Homo sapiens) yielded a Km ([7]; substrate Me1H3_1–21) of 5.22 ± 0.32 µM and a Km ([7]; substrate Me2H3_1–21) of 3.48 ± 0.36 µM.
In the case of hKMT2D SET domain (Homo sapiens), the Km ([8]; other: 25 nM WRAD2, Ping–Pong model eq 2, substrate H3_1–21) is reported as 5.10 ± 0.32 µM, the Km ([8]; other: [WRAD2] 0 nM, [SET] 125 nM, eq 1) is reported as 5.38 ± 1.0 µM and the Km ([8]; other: [WRAD2] 0.125 nM, [SET] 125 nM, eq 1) is reported as 5.48 ± 1.25 µM. It also gave a Km ([8]; other: [WRAD2] 0.5 nM, [SET] 125 nM, eq 1) of 3.61 ± 0.51 µM, a Km ([8]; other: [WRAD2] 1 nM, [SET] 125 nM, eq 1) of 4.55 ± 0.62 µM and a Km ([8]; other: [WRAD2] 2 nM, [SET] 125 nM, eq 1) of 4.18 ± 0.50 µM. It also gave a Km ([8]; other: [WRAD2] 4 nM, [SET] 125 nM, eq 1) of 2.36 ± 0.28 µM, a Km ([8]; other: [WRAD2] 6.25 nM, [SET] 30 nM, eq 1) of 3.07 ± 0.16 µM and a Km ([8]; other: [WRAD2] 10 nM, [SET] 30 nM, eq 1) of 3.89 ± 0.33 µM. For the same molecule, the Km ([8]; other: [WRAD2] 15 nM, [SET] 30 nM, eq 1) was 4.77 ± 0.22 µM, the Km ([8]; other: [WRAD2] 25 nM, [SET] 30 nM, eq 1, substrate H3_1–21) was 4.65 ± 0.34 µM and the Km ([8]; other: [WRAD2] 125 nM, [SET] 30 nM, eq 1) was 4.71 ± 0.25 µM. The Km ([8]; other: [WRAD2] […], [SET] 125 nM, eq 1) was 6.28 ± 0.65 µM.
